Legend:
[1] = target: purified human autoBACE-2 (Homo sapiens (Human), UniProt Q9Y5Z0); assay: BACE-2 Assay (BACE-HTRF assay); format: biochemical; conditions: Assay 2; Ki calculated from IC50 by Cheng-Prusoff; read-out: BACE2 Ki
Description: The compounds of the invention were determined to be potent inhibitors of BACE-2 using the following assay. Inhibitor IC50s at purified human autoBACE-2 are determined in a time-resolved endpoint proteolysis assay that measures hydrolysis of the QSY7-[…]-Eu-amide FRET peptide substrate (BACE-HTRF assay). BACE-mediated hydrolysis of this peptide results in an increase in relative fluorescence (RFU) at 620 nm after excitation with 320 nm light Inhibitor compounds, prepared at 3× the desired final concentration in 1×BACE assay buffer (20 mM sodium acetate pH 5.0, 10% glycerol, 0.1% Brij-35) supplemented with 7.5% DMSO are pre-incubated with an equal volume of autoBACE-2 enzyme diluted in 1×BACE assay buffer (final enzyme concentration 1 nM) in black 384-well NUNC plates for 30 minutes at 30° C. […] DMSO is present at […] final concentration in the assay. Following laser excitation of sample wells at 320 nm, the fluorescence signal at 620 nm is collected for 400 ms following a 50 μs delay on a RUBYstar HTRF plate reader (BMG Labtechnologies). Raw RFU data is normalized to maximum (1.0 nM BACE/DMSO) and minimum (no enzyme/DMSO) RFU values. IC50 values are determined by nonlinear regression analysis (sigmoidal dose response, variable slope) of percent inhibition data with minimum and maximum values set to 0 and 100 percent respectively. Similar IC50s are obtained when using raw RFU data. The Ki values are calculated from the IC50 using the Cheng-Prusoff equation.

BACE-1 = BACE-1 (Homo sapiens (Human), UniProt P56817); assay: BACE-1 Cellular Assay (Aβ in HEK293-APPswe/lon cells); format: cell-based; conditions: 4 hours
Description: Assay 3: BACE-1 Cellular Assay
Certain compounds of the invention, identified in the tables herein, were determined to be potent inhibitors of BACE-1 in the following cellular assay. HEK293 cells are obtained from the American Type Culture Collection (ATCC) and stably transfected with the human amyloid precursor protein cDNA containing the FAD Swedish (enhances β-secretase processing) and London (enhances Aβ42 cleavage) mutations. A HEK293 stable clone with Aβ expression (HEK293-APP^swe/lon) is identified and maintained at 37° C., 5% CO2 in the ATCC-recommended growth media supplemented with hygromycin. […] Aβ40 or Aβ42 are measured in 15 μl of media using a mesoscale based ELISA assay. Full length Aβ40 and Aβ42 peptides are captured with the N-terminal specific biotinylated-WO2 monoclonal antibody and detected using either the ruthenylated Aβ40 C-terminal specific monoclonal antibody, G2-10 or the ruthenylated Aβ42 C-terminal specific monoclonal antibody G2-11 respectively. Raw electrochemiluminescnce values are measured using a Mesoscale Sector Imager plate reader and are plotted as a function of compound concentration. IC50 values are interpolated from the data using nonlinear regression analysis (Sigmoidal dose response fit with variable slope) of the data using GraphPad Prism software.

[2] = target: purified human Cathepsin-D (Homo sapiens (Human), UniProt P07339); assay: Cathepsin-D Assay (time-resolved FRET); format: biochemical; conditions: Assay 4; Ki calculated from IC50 by Cheng-Prusoff;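 note: Europium-labelled peptide substrate with QSY7 quencher, cleavage read as 620 nm fluorescence after 30 min preincubation then 30 min reaction at 30 °C, pH 5.0, inhibition lowers signal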
Description: Assay 4: Cathepsin-D Assay
This substrate contains an C-terminal QSY7 moiety that serves as a quencher of the N-terminal Europium fluorophore (620 nm Em). In the absence of enzyme activity, 620 nm fluorescence is low in the assay and increased linearly over 1 hour in the presence of uninhibited Cathepsin-D enzyme. Inhibition of Cathespin D cleavage of the Eu-Aspartyl Protease-QSY7 substrate by inhibitors is manifested as a suppression of 620 nm fluorescence.
Varying concentrations of inhibitors in a volume of 100 nl are preincubated with purified human Cathepsin-D (0.1 nM in 10 μl) for 30 minutes at 30° C. in reaction buffer containing 100 mM Na-Acetate pH 5.0, and 0.02% Brij-35. Reactions are initiated by addition of 10 μl of 100 nM Eu-Aspartyl Protease-QSY7 substrate (50 nM final) to give a final reaction volume of 20 μl in a 384 well Nunc HTRF plate. The reactions are incubated at 30° C. for 30 minutes. The 620 nm fluorescence is then read on a Envision Multilabel plate reader (Perkin-Elmer) using a 200 microsecond delay followed by a 400 microsecond acquisition time window. Inhibitor IC50 values are derived from non-linear regression analysis of concentration response curves.

[3] = target: soluble human BACE-1 catalytic domain (Homo sapiens (Human), UniProt P56817); assay: BACE-1 Ki Assay (BACE-1 HTRF FRET Assay); format: biochemical; conditions: Assay 1; Ki calculated from IC50 by Cheng-Prusoff
Description: Assay 1: BACE-1 Ki Assay (BACE-1 HTRF FRET Assay)
The compounds of the invention were determined to be potent inhibitors of BACE-1 using the following assay.
The following reagents were used in this assay. Na^+-Acetate pH 5.0; 1% Brij-35; Glycerol; Dimethyl Sulfoxide (DMSO); Recombinant human soluble BACE-1 catalytic domain (>95% pure); APP Swedish mutant peptide substrate (QSY7-APP^swe-Eu): QSY7-[…]-Europium-amide.
A homogeneous time-resolved FRET assay can be used to determine IC50 values for inhibitors of the soluble human BACE-1 catalytic domain. This assay monitors the increase of 620 nm fluorescence that resulted from BACE-1 cleavage of an APPswedish APP^swe mutant peptide FRET substrate (QSY7-[…]-Europium-amide). This substrate contains an N-terminal QSY7 moiety that serves as a quencher of the C-terminal Europium fluorophore (620 nm Em). In the absence of enzyme activity, 620 nm fluorescence is low in the assay and increased linearly over 3 hours in the presence of uninhibited BACE-1 enzyme. Inhibition of BACE-1 cleavage of the QSY7-APP^swe-Eu substrate by inhibitors is manifested as a suppression of 620 nm fluorescence.
Varying concentrations of inhibitors at 3× the final desired concentration in a volume of […] are preincubated with purified human BACE-1 catalytic domain (3 nM in 10 μl) for 30 minutes at 30° C. in reaction buffer containing 20 mM Na-Acetate pH 5.0, 10% glycerol, 0.1% Brij-35 and 7.5% DSMO. Reactions are initiated by addition of 10 μl of 600 nM QSY7-APP^swe-Eu substrate (200 nM final) to give a final reaction volume of 30 μl in a 384 well Nunc HTRF plate. The reactions are incubated at 30° C. for 1.5 hours. The 620 nm fluorescence is then read on a Rubystar HTRF plate reader (BMG Labtechnologies) using a […] delay followed by a 400 millisecond acquisition time window. Inhibitor IC50 values are derived from non-linear regression analysis of concentration response curves. Ki values are then calculated from IC50 values using the Cheng-Prusoff equation using a previously determined […] of 8 μM for the QSY7-APP^swe-Eu substrate at BACE-1. The example compounds of the invention were measured in this assay.

CSF Aβ40 = assay: Aβ Reduction In Vivo (rat CSF Aβ40); conditions: male CD IGS rats, 10 mg/kg oral gavage, CSF at 3 hours, change vs vehicle
Description: Assay 5: Aβ Reduction In Vivo
The in vivo efficacy and/or potency of BACE inhibitors (test compounds) can be evaluated using a variety of animal models, including mouse, rat, dog, and monkey, and these animals can be wild type, transgenic, or gene knockout animals.
Generally, animals are administered (by oral gavage, intravenous injection, or by other suitable route) a test compound in doses ranging from, for example, 0.1 mg/kg (mg of compound per kg of animal body weight) to 100 mg/kg formulated in vehicles, such as cyclodextrin, phosphate buffer, hydroxypropyl methylcellulose or other suitable vehicles. One to twenty-four hours following the administration of compound, animals are sacrificed, and tissues (for example, brain, cerebrospinal fluid (CSF), and/or plasma) are collected for analysis of Aβ levels and/or test compound concentrations (Dovey et al., 2001, Journal of Neurochemistry, 76, 173-181). Tissue samples are processed appropriately and then analyzed for the presence of Aβ by specific sandwich ELISA assays based on electrochemiluminescence (ECL) technology.
For example, in the following assay for which data are reported below, male CD IGS rats (body weight approximately 120 g, Charles River Laboratories, Kingston, N.Y.) were used to assess lowering of CSF levels of Aβ1-40 (Aβ40) in the presence of compounds of the invention. At time 0, animals were administered by oral gavage a test compound at a dose of 10 mg/kg in 20% hydroxypropyl-β-cyclodextrin (dosing volume 5 mL/kg). A separate group of animals received 20% hydroxypropyl-β-cyclodextrin alone to serve as the vehicle control group. Three hours after administration, the rats were euthanized with excess CO2. Immediately following euthanasia, CSF was collected from the cisterna magna and quickly frozen on dry ice. Samples were stored at −80° C. until quantification of Aβ40 levels.
The measurement of endogenous rat Aβ40 in CSF relied on the 585 antibody (Ab585, BioSource, NONO585), which specifically recognizes the N-terminal sequence of rodent Aβ40, and on the monoclonal antibody, G2-10, which specifically recognizes the free C-terminus of Aβ40. Ab585 was labeled with biotin (b-Ab585) by first dialyzing the antibody sample extensively versus PBS (pH 7.8) to remove impurities, followed by dilution to between 1 and 2 mg/mL protein concentration. EZ-Link Sulfo-NHS-LC-Biotin (Pierce) was dissolved in PBS (pH 7.8) at a concentration of 1 mg/mL immediately prior to use. Ab585 was labeled with EZ-Link Sulfo-NHS-LC-biotin using a 10:1 biotin:antibody ratio by incubation at room temperature for 1 hour. The labeling reaction was quenched by addition of 1.0 M glycine to a final concentration of 0.1 M followed by 10 minute incubation at room temperature. Glycine was removed by extensive dialysis versus PBS.
For rat CSF Aβ40 determinations, a calibration curve of various concentrations of synthetic rodent Aβ40 was assayed in parallel with rat CSF samples in duplicate using an avidin-coated 96-well MSD plate (Mesoscale Diagnostics). Either 50 μL of rodent Aβ40 standards diluted in PBS (pH 7.4) supplemented with 1% BSA and 1% Tween-20 (standard diluent buffer) or 40 μL of standard diluent buffer plus 10 μL rat CSF were added to each 96 well avidin-coated plate. To each well was added 50 μL of 0.1 M HEPES (pH 7.5), 2% BSA, 2% Tween-20, 0.3 M NaCl (2×Aβ40 buffer) supplemented with the b-Ab585 capture and ruthenylated-G2-10 detection antibodies diluted to 1 μg/mL and 0.5 μg/mL, respectively. Plates were shaken for 1 min on a microplate shaker, covered to protect from light and incubated overnight (˜16 h) at 4° C. For detection, plates were first washed twice with 100 μL of 1×CSF Aβ40 buffer followed by addition of 160 μL of 1×MSD read buffer-T (Mesoscale Diagnostics) diluted in 1×CSF Aβ40 buffer. Plates were read on a MSD Sector Imager 2400 model (Mesoscale Diagnosotics). […]

Sequence of soluble human BACE-1 catalytic domain (P56817 75-416): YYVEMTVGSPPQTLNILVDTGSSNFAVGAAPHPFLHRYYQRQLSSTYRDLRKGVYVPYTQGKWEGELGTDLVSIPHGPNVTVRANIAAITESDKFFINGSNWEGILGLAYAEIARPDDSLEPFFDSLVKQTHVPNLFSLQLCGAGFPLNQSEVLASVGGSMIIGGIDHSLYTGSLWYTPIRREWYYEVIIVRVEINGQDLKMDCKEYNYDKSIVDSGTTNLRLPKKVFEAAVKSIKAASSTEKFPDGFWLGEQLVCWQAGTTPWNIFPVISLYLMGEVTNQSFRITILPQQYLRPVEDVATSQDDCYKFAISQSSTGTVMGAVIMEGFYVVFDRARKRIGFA
Sequence of purified human Cathepsin-D (P07339 65-412): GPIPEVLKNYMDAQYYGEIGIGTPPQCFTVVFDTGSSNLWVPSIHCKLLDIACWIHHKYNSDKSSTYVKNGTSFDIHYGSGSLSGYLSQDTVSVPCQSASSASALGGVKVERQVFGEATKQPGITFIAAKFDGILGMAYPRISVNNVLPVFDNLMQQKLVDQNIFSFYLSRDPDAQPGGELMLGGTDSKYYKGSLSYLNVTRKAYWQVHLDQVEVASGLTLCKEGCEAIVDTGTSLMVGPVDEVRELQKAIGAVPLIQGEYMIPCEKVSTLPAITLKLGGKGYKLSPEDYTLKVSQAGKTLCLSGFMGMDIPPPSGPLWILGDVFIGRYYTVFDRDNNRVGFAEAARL
Sequence of purified human autoBACE-2 (Q9Y5Z0 63-466): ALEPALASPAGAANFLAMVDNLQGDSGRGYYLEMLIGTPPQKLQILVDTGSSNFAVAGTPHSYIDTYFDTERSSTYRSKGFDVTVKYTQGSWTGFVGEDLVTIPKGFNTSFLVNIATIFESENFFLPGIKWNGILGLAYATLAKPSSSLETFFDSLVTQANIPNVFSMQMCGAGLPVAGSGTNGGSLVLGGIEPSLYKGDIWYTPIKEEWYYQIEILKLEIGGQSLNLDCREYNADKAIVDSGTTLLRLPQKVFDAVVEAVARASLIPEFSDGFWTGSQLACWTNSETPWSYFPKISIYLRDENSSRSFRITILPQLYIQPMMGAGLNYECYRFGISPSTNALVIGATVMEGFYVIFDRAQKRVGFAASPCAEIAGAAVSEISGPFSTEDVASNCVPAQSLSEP
Sequence of BACE-1 (P56817 46-501): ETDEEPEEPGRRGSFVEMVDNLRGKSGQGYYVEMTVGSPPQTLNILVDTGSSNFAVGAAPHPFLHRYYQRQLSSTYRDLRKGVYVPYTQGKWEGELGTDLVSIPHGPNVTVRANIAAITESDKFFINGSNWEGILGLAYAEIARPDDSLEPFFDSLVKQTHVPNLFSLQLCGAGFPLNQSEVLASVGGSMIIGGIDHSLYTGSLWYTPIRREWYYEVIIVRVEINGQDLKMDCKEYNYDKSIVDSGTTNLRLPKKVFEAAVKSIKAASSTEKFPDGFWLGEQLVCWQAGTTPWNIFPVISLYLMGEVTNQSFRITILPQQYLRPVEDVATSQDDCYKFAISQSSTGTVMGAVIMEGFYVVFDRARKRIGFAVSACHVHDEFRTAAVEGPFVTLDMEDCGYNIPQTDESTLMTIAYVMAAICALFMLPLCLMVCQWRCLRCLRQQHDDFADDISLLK

| Structure (SMILES) | Ki [1] [nM] | IC50 (BACE-1) [nM] | Ki [2] [nM] | Ki [3] [nM] | Aβ reduction in vivo in rat (Δ% CSF Aβ40 @ 10 mpk) (CSF Aβ40) [%] |
| --- | --- | --- | --- | --- | --- |
| COc1cnc2c(Nc3ccc(F)c([C@]4(C)CS(=O)(=O)[C@@](C)(C5CC5)C(N)=N4)c3)ncnc2c1 [Example 20, (2S,5R)-2-cyclopropyl-5-(2-fluoro-5-((7-methoxypyrido[3,2-d]pyrimidin-4-yl)amino)phenyl)-3-imino-2,5-dimethylthiomorpholine 1,1-dioxide] | 2.4 | 5.3 | 2160 | 3.7 |  |
| C[C@@]1(c2cc(Nc3nccc4cc(O)cnc34)ncc2F)CS(=O)(=O)[C@@](C)(C2CC2)C(N)=N1 [Example 25, (3R,6S)-5-amino-6-cyclopropyl-3-(5-fluoro-2-((3-hydroxy-1,7-naphthyridin-8-yl)amino)pyridin-4-yl)-3,6-dimethyl-3,6-dihydro-2H-1,4-thiazine 1,1-dioxide] | 0.59 | 4.9 | > 9400 | 0.89 |  |
| C[C@@]1(c2cc(Nc3nccc4cc(Cl)cnc34)ncc2F)CS(=O)(=O)[C@@](C)(C2CC2)C(N)=N1 [Example 27, (3R,6S)-5-amino-3-(2-((3-chloro-1,7-naphthyridin-8-yl)amino)-5-fluoropyridin-4-yl)-6-cyclopropyl-3,6-dimethyl-3,6-dihydro-2H-1,4-thiazine 1,1-dioxide] | 2.9 | 180 | > 9400 | 10 |  |
| COc1cnc2c(Nc3cnc(F)c([C@]4(C)CS(=O)(=O)[C@@](C)(C5CC5)C(N)=N4)c3)nccc2c1 [Example 32, (3R,6S)-5-amino-6-cyclopropyl-3-(2-fluoro-5-((3-methoxy-1,7-naphthyridin-8-yl)amino)pyridin-3-yl)-3,6-dimethyl-3,6-dihydro-2H-1,4-thiazine 1,1-dioxide] | 2.6 | 24 | 650 | 6.9 |  |
| C[C@@]1(c2cc(Nc3ccnc4cc(Cl)cnc34)ncc2F)CS(=O)(=O)[C@@](C)(C2CC2)C(N)=N1 [Example 33, (3R,6S)-5-amino-3-(2-((7-chloro-1,5-naphthyridin-4-yl)amino)-5-fluoropyridin-4-yl)-6-cyclopropyl-3,6-dimethyl-3,6-dihydro-2H-1,4-thiazine 1,1-dioxide] | 0.82 | 27 | 820 | 6.2 |  |
| COc1cnc2c(Nc3cc([C@]4(C)CS(=O)(=O)[C@@](C)(C5CC5)C(N)=N4)c(F)cn3)ccnc2n1 [Example 35, (3R,6S)-5-amino-6-cyclopropyl-3-(5-fluoro-2-((3-methoxypyrido[2,3-b]pyrazin-8-yl)amino)pyridin-4-yl)-3,6-dimethyl-3,6-dihydro-2H-1,4-thiazine 1,1-dioxide] |  | 10 |  |  | −75 |
| COc1cnc2c(Nc3ccc(F)c([C@]4(C)CS(=O)(=O)[C@@](C)(C5CC5)C(N)=N4)c3)ccnc2c1 [Example 36, (3R,6S)-5-amino-6-cyclopropyl-3-(2-fluoro-5-((7-methoxy-1,5-naphthyridin-4-yl)amino)phenyl)-3,6-dimethyl-3,6-dihydro-2H-1,4-thiazine 1,1-dioxide] |  | 3.5 |  |  | −67 |
| C[C@@]1(c2cc(Nc3ncnc4cc(Br)cnc34)ncc2F)CS(=O)(=O)[C@@](C)(C2CC2)C(N)=N1 [Example 38, (3R,6S)-5-amino-3-(2-((7-bromopyrido[3,2-d]pyrimidin-4-yl)amino)-5-fluoropyridin-4-yl)-6-cyclopropyl-3,6-dimethyl-3,6-dihydro-2H-1,4-thiazine 1,1-dioxide] | 3.8 | 110 | 3200 | 8.2 |  |

— patent publication US9732088B2, “C2-carbocyclic iminothiazine dioxides as BACE inhibitors, compositions, and their use” (Merck Sharp & Dohme Corp., priority 2014, dated 2017)
